Laboratory results: the NIST ThermoML archive (doi:10.1016/j.fluid.2014.03.017)

Assay: molar heat capacity at constant pressure
Settings: Liquid, Flow calorimetry

CCOC(F)(C(F)(F)C(F)(F)C(F)(F)F)C(F)(C(F)(F)F)C(F)(F)F (centres undefined) [2-trifluoromethyl-3-ethoxydodecafluorohexane]
molar heat capacity at constant pressure [J/K/mol]
Settings | 100 kPa | 5000 kPa | 10000 kPa | 15000 kPa
248.45 K | 309.34 | 304.79 | 300.64 | 300.23
254.4 K | 329.22 | 325.49 | 320.94 | 319.28
264.24 K | 362.35 | 358.21 | 354.07 | 351.17
273.51 K | 393.82 | 390.92 | 387.19 | 380.98
283.77 K | 428.61 | 428.19 | 426.12 | 414.53
294.36 K | 470.02 | 463.8 | 461.73 | 456.35
304.12 K | 490.31 | 485.34 | 484.1 | 476.23
313.92 K | 531.72 | 528.41 | 526.75 | 516.81
323.65 K | 565.26 | 559.05 | 547.87 | 543.31
333.47 K | 587.21 | 578.1 | 571.47 | 565.68
343.39 K | 629.04 | 620.75 | 612.88 | 606.67
353.38 K | 669.2 | 656.78 | 653.88 | 649.74

O [water]
molar heat capacity at constant pressure [J/K/mol]
Settings | 100 kPa | 5000 kPa | 10000 kPa | 15000 kPa
294.2 K | – | – | 73.7 | –
294.24 K | 74.96 | 74.89 | – | –
294.27 K | – | – | – | 74.67
303.93 K | 75.43 | – | – | –
303.97 K | – | 75.34 | – | 76.01
303.98 K | – | – | 75.05 | –
313.68 K | 76.44 | – | 75.93 | –
313.69 K | – | 76.02 | – | 75.83
323.43 K | 76.28 | 75.84 | 75.47 | 74.96
333.33 K | 75.9 | 75.47 | 75.23 | 75.11
343.28 K | 76.31 | 75.95 | 75.29 | 75.07
353.25 K | – | 75.84 | 75.63 | 75.25
353.26 K | 76.04 | – | – | –

CCOC(F)(F)C(F)(F)C(F)(F)C(F)(F)F [1-ethoxy-1,1,2,2,3,3,4,4,4-nonafluorobutane]
Settings | molar heat capacity at constant pressure [J/K/mol]
245.62 K, 100 kPa | 307.66
245.63 K, 10000 kPa | 295.52
245.64 K, 5000 kPa | 299.74
245.64 K, 15000 kPa | 286.54
254.42 K, 100 kPa | 317.7
254.44 K, 5000 kPa | 310.04
254.44 K, 10000 kPa | 305.81
254.44 K, 15000 kPa | 297.89
264.28 K, 100 kPa | 328.53
264.29 K, 10000 kPa | 319.55
264.3 K, 5000 kPa | 321.66
264.3 K, 15000 kPa | 307.4
274.14 K, 100 kPa | 337.24
274.16 K, 10000 kPa | 328.26
274.17 K, 5000 kPa | 332.49
274.17 K, 15000 kPa | 318.23
283.97 K, 100 kPa | 343.58
283.98 K, 10000 kPa | 340.67
283.99 K, 5000 kPa | 338.83
283.99 K, 15000 kPa | 333.02
293.9 K, 100 kPa | 365.5
293.92 K, 10000 kPa | 356.52
293.93 K, 5000 kPa | 360.75
293.93 K, 15000 kPa | 344.64
303.85 K, 100 kPa | 373.69
303.85 K, 10000 kPa | 364.71
303.86 K, 5000 kPa | 368.93
303.86 K, 15000 kPa | 356.52
313.79 K, 100 kPa | 389.8
313.9 K, 10000 kPa | 377.91
313.91 K, 5000 kPa | 385.04
313.91 K, 15000 kPa | 369.2
323.6 K, 100 kPa | 393.76
323.62 K, 10000 kPa | 384.78
323.63 K, 5000 kPa | 389
323.63 K, 15000 kPa | 384.51
333.28 K, 100 kPa | 407.23
333.29 K, 5000 kPa | 402.47
333.29 K, 10000 kPa | 398.25
333.29 K, 15000 kPa | 399.04
343.51 K, 100 kPa | 419.9
343.52 K, 10000 kPa | 410.92
343.53 K, 5000 kPa | 414.88
343.53 K, 15000 kPa | 407.49
353.61 K, 100 kPa | 431.79
353.62 K, 10000 kPa | 422.81
353.63 K, 5000 kPa | 426.77
353.63 K, 15000 kPa | 420.43
